Reference: patent US20010031275A1, “Sesamol inhibitor of delta-5-desaturase activity and uses therefor” (priority 1998, published 2001)
Values joined by “and” are separate entries in the source; they are usually repeats but may differ in a detail not shown here. Equal values may be shown once. “Also recorded” adds a separate entry of the source. Marks after values point to notes of the source that are not given here.

Key:
Δ-5 desaturase enzyme = details: Shimizu et al., Lipids 26:512-516 (1991); cited from earlier work
[1] = system: PGE2, IL-10, IL-6 and TNF-α; details: fed mice, cited from earlier work
[2] = system: Δ-5 desaturation of ω6 fatty acids; assay: Fatty acid composition of liver membrane phospholipids from mice fed sesamol-supplemented safflower oil diet; type: in vivo, Balb/c mice; details: 2 weeks; for DGLA (20:3ω6): control 1.4 ± 0.1; for Docosapentaenoic acid (22:5ω6): control 2.5 ± 0.4; for Δ-5 desaturation (20:4ω6/20:3): ratio Arachidonic acid/Dihomo-γ-linolenic acid, liver phospholipids, SO + 1% sesamol diet, control 18.0 ± 1.7
Method: The phospholipid fatty acid composition of the livers were determined, and the data represent mean mole percents of the total fatty acids (±s.d.). The levels of significance between the groups were determined using an unpaired student's t-test (p,0.05).
[…] They were allowed free access to drinking water and the experimental diets were fed at dusk, daily, between 4-5 PM. The weights of the body, and of the liver and spleen were determined on days 4, 7 and 14.
(§1) Diets: The AIN-76A fat-free powder along with 0.05% t-butyl hydroxy toluene, an antioxidant, was mixed with 5 wt % (10% Kcal) of safflower oil (Oilseeds International Ltd., Fresno, Calif.), partitioned into daily rations packaged in separate whirl-pack bags, flushed with N2, and stored at 4° C. Where indicated, these diets were supplemented with 1 wt % sesamol (Aldrich Chemical Company Inc. Milwaukee, Wis.).
Fatty acid analysis: Liver tissues were homogenized and extracted with a mixture of chloroform:methanol(2:1 v/v) containing 0.01% t-butylated hydroxytoluene as an antioxidant. The solvent fraction was isolated and evaporated to dryness under N2 and reconstituted in chloroform. The total phospholipids were separated by thin-layer chromatography on silica gel-H plates (Analtech Inc., Newark, Del.), and the fatty acid methyl esters were derived (Palombo et al., Lipids 29: 643-649 (1994)) and analyzed on a fused silica capillary column (100 m, 0.25 mm ID, 0.20 μm thickness; SP™-2560, Supelco Inc., Bellefonte, Pa.) using a gas chromatograph (5890 Series II) equipped with a mass selective detector (5971, Hewlett-Packard). The results were expressed as relative percent of identified fatty acids on a molar basis, using heptadecaenoic acid (17:0) as an internal standard.
The changes in the fatty acid composition (mean±s.d; mol. %) were determined in the liver membrane phospholipids from mice fed both the SO diets for 2 weeks (Table 1). […] Similar data were obtained in mice fed for as short as 4 days (data not shown).

[3] = system: TNF-α, IL-6, IL-10 and IL-12; assay: Endotoxin-induced in vivo production of cytokines (plasma ELISA) in mice fed sesamol-supplemented SO diet; parameters: species or system Balb/c mice; details: SO + 1% sesamol diet, mean ± s.e.; for Tumor Necrosis Factor (TNF)-α: plasma at 1 hour following LPS, SO alone 3,042 ± 428; for Interleukin (IL)-6 / IL-10 / IL-12: plasma at 3 hours following LPS; for Interleukin (IL)-6: SO alone 143 ± 22; for IL-10: SO alone 262 ± 15; for IL-12: SO alone 6,355 ± 482
Method: Data represent the levels of […] (means±s.e.) in plasma samples obtained at 1 hour for TNF-α, and at 3 hours for IL-6, IL-10, and IL-12 following LPS exposure. The levels of significance in the differences between the two groups were determined using Dunnett Multiple Comparison test.
as §1
The plasma levels of TNF-α, IL-6, IL-10 and IL-12 were determined according to the manufacturer's instructions using enzyme-linked immunosorbent assay kits (Biosource International, Camarrilo, Calif.).

[4] = system: IL-6, IL-10, IL-12, TNF-α and PGE2; assay: Synthetic sesamol diet in endotoxic mice: plasma cytokines and PGE2 after LPS challenge; type: in vivo, Balb/c mice; details: 5% SO + 0.25% synthetic sesamol diet, three weeks, 50 μg/mouse LPS for 90 minutes or three hours
Text: Proinflammatory mediators play an important role during endotoxic shock. As described herein, naturally occurring sesamol inhibits Δ-5 desaturase activity, and also decreases the production of prostaglandin (PG)E2. No such scientific data are available for the synthetic, pure form of sesamol. Therefore, the effects of consuming synthetic sesamol on proinflammatory immune responses during septic shock were studied. Female Balb/c mice were fed diets supplemented with 5% safflower oil (SO) in the absence or presence of 0.25% synthetic sesamol for three weeks. After a challenge with 50 μg/mouse LPS for 90 minutes or three hours, the plasma levels (pg/ml) of interleukin (IL)-6, IL-10, IL-12, tumor necrosis factor (TNF)-α and PGE2 were determined.

[5] = Weights of body, liver and spleen of mice fed sesamol-supplemented diets; type: in vivo, Balb/c mice
Method: Animals: Six 8-week old, inbred, female Balb/c mice (Taconic Farms) were housed in our animal facility with a 12 hour day and 12 hour night cycle. They were allowed free access to drinking water and the experimental diets were fed at dusk, daily, between 4-5 PM. The weights of the body, and of the liver and spleen were determined on days 4, 7 and 14.

[6] = liver membrane phospholipids, 5 wt % SO + 1% sesamol diet, mean ± s.d., n=8
[7] = liver membrane phospholipids, 5 wt % SO + 1% sesamol diet, mean ± s.d., n=8, listed as SO + SESAMOL
[8] = mice fed sesamol-supplemented diets vs SO diets

c1cc2c(cc1[C@H]1OC[C@H]3[C@@H]1CO[C@@H]3c1ccc3c(c1)OCO3)OCO2 [sesamin]
inhibition of the activity of Δ-5 desaturase enzyme in vitro (Δ-5 desaturase enzyme): inhibit
LPS-induced production of IL-6 ([1]; Chavali et al. 1997): lower
LPS-induced production of IL-10 ([1]; Chavali et al. 1997): lower
LPS-induced production of PGE2 ([1]; Chavali et al. 1997): lower
LPS-induced production of TNF-α ([1]; Chavali et al.): elevated; also recorded: higher

Oc1cc2c(cc1[C@H]1OC[C@H]3[C@@H]1CO[C@@H]3c1ccc3c(c1)OCO3)OCO2 [sesaminol]
inhibition of the activity of Δ-5 desaturase enzyme in vitro (Δ-5 desaturase enzyme): inhibit

Oc1ccc2c(c1)OCO2 [sesamol, 3,4-methylenedioxyphenol]
Arachidonic acid (20:4ω6) [2, 6]: unchanged
Docosahexaenoic acid (22:6ω3) [2, 6]: 9.5 ± 0.4 mole percents
Oleic acid (18:1ω9) [2, 6]: 8.2 ± 1.1 mole percents
Palmitic acid (16:0) [2, 6]: 19.5 ± 1.4 mole percents
Stearic acid (18:0) [2, 6]: 19.2 ± 1.7 mole percents
Vaccenic acid (18:1ω7) [2, 6]: 2.6 ± 0.4 mole percents
DGLA (20:3ω6) [2, 6]: 1.6±0.1 mole percents and 1.6±1 mole percents
DGLA (20:3ω6) [2, 7]: 1.6 ± 0.1^a mole percents
Docosapentaenoic acid (22:5ω6) [2, 6]: 1.4±0.1 mole percents
Docosapentaenoic acid (22:5ω6) [2, 7]: 1.4 ± 0.1^a mole percents
Arachidonic acid (20:4ω6) [2, 7]: 24.9 ± 0.9 mole percents
Δ-5 desaturation (20:4ω6/20:3) [2]: 15.6±1.5
Δ-5 desaturation (20:4ω6/20:3) ([2]; listed as SO + SESAMOL): 15.6 ± 1.5^a
Tumor Necrosis Factor (TNF)-α [3]: not elevated; also recorded: unaffected; also recorded: did not differ markedly; also recorded: did not differ significantly
Tumor Necrosis Factor (TNF)-α ([3]; listed as SO + SESAMOL): 2,931 ± 461 pg/ml
Interleukin (IL)-6 [3]: 63 ± 11 ng/mL
Interleukin (IL)-6 ([3]; listed as SO + SESAMOL): 63 ± 11 ng/mL
IL-10 [3]: unaffected; also recorded: did not differ markedly; also recorded: did not differ significantly
IL-10 ([3]; listed as SO + SESAMOL): 236 ± 20 pg/mL
IL-12 [3]: did not differ markedly
IL-12 ([3]; listed as SO + SESAMOL): 6,620 ± 646 pg/ml
IL-10 ([4]; SO alone 314 ± 37): significantly higher
IL-10 ([4]; SO alone 314 ± 37, listed as SO + Sesamol): 490 ± 35 pg/mL
IL-6 ([4]; SO alone 418 ± 51): did not differ
IL-6 ([4]; SO alone 418 ± 51, listed as SO + Sesamol): 360 ± 32 pg/mL
PGE2 ([4]; SO alone 595 ± 68): markedly lower
PGE2 ([4]; SO alone 595 ± 68, listed as SO + Sesamol): 265 ± 39 pg/mL
TFN-α ([4]; SO alone 9,497 ± 1425): markedly lower
TFN-α ([4]; SO alone 9,497 ± 1425, listed as SO + Sesamol): 4,503 pg/ml
IL-12 ([4]; SO alone 11,165 ± 549): markedly lower
IL-12 ([4]; SO alone 11,165 ± 549, listed as SO + Sesamol): 8,969 pg/ml
weights of body [5, 8]: not significantly different
weights of livers [5, 8]: unaffected; also recorded: not significantly different
weights of the spleen [5, 8]: not significantly different
percent gain in body weights ([5]; sesamol-supplemented vs SO diet group): almost identical
inhibition of the activity of Δ-5 desaturase enzyme in vitro (Δ-5 desaturase enzyme): does not inhibit

c1cc2c(cc1O[C@H]1OC[C@H]3[C@@H]1CO[C@@H]3c1ccc3c(c1)OCO3)OCO2 [sesamolin]
inhibition of the activity of Δ-5 desaturase enzyme in vitro (Δ-5 desaturase enzyme): inhibit
